Measurements as given in US11040981B2, “Pyrrolotriazine compounds and methods of inhibiting TAM kinases” (Syros Pharmaceuticals, Inc., priority 2017, dated 2021).

How the values were obtained:
FLT3 = biological target: T1, FLT3 (Homo sapiens, UniProt P36888); experiment: TR-FRET kinase activity assay, FLT3; type: biochemical; settings: ATP at Km, 60 minutes
T1 sequence (P36888 27-993): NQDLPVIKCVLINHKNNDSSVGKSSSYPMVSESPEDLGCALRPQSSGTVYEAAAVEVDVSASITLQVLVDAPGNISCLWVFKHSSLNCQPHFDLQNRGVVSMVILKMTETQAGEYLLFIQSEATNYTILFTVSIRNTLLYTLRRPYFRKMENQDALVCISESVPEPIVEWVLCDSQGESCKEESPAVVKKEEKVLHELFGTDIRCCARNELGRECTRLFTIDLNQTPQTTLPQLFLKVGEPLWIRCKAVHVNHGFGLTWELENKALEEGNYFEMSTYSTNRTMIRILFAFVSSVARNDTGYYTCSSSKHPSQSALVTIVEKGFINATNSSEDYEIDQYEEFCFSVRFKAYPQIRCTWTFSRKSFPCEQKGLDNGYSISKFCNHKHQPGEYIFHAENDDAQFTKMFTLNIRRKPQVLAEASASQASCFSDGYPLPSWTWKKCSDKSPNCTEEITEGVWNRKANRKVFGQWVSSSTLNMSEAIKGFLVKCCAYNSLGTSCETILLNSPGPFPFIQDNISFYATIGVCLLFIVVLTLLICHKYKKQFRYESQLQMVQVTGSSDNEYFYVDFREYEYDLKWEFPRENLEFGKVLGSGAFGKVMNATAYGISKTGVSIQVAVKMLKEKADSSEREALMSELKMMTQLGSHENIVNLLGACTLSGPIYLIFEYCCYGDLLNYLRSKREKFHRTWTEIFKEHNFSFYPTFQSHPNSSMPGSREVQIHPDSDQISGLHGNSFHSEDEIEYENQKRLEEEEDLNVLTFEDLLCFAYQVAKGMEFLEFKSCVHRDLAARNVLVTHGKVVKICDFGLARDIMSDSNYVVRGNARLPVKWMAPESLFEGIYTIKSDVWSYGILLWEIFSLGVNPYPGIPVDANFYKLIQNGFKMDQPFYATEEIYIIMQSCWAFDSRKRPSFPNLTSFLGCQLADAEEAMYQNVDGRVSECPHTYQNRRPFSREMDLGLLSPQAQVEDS
Procedure, shortened: (§1)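 Recombinant human kinases, fluorescent peptide substrate, ATP at Km; 1 h RT, pH 7.5. EDTA-quenched, Eu antibody added, TR-FRET read; IC50 determined.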

MERTK = biological target: T2, MERTK (Homo sapiens, UniProt Q12866); experiment: TR-FRET kinase activity assay, MERTK; type: biochemical
T2 sequence (Q12866 21-999): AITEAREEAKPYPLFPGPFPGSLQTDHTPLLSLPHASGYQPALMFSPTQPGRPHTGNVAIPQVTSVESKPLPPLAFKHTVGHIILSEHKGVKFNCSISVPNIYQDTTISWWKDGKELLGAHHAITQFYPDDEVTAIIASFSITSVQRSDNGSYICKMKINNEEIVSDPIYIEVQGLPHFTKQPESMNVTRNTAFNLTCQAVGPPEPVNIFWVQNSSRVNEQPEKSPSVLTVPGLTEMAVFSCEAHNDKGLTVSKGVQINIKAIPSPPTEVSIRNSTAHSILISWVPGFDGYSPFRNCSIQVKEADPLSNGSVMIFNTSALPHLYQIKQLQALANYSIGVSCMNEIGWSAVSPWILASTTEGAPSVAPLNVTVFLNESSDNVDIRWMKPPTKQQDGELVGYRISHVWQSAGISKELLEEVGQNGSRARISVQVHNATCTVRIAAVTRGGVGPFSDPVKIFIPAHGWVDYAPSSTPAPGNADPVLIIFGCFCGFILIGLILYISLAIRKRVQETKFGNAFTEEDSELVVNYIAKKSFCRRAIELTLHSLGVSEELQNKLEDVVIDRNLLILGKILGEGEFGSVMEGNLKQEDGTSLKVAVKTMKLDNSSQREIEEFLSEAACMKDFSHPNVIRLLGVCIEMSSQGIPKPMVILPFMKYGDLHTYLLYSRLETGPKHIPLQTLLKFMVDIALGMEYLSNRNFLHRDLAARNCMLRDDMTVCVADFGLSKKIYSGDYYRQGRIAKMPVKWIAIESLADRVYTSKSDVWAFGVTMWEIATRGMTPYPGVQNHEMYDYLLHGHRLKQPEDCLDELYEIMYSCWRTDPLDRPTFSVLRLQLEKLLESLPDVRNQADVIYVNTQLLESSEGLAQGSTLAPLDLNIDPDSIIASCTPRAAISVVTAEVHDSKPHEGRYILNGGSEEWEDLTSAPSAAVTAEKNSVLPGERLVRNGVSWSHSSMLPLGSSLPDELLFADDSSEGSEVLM
Procedure, shortened: as §1

Structure (SMILES): COC[C@H](C)Nc1ncc2c([C@H]3CC[C@H](C(=O)N4CC5(COC5)C4)CC3)cc([C@H]3CC[C@H](O)CC3)n2n1 [Compound 578]
- IC50 (FLT3): 1000 to 10000 nM
- IC50 (MERTK; TR-FRET activity assay, ATP at Km, 60 minutes, read-out: Mer IC50): ≤ 100 nM
- FLT3/Mer ratio (FLT3 IC50/Mer IC50) (MERTK; ratio calculated as FLT3 IC50/Mer IC50): +++ (“+++” represents a ratio of >100)
